In patent US8374794B1, “Protein synthesis modulators” (Rib-X Pharmaceuticals, Inc., priority 2003, dated 2013):

Molecular target: T1, H. marismortui large ribosomal subunit (Haloarcula marismortui, UniProt P32411)
T1 construct: Ribosomes were purified and crystallized as described previously; endogenous in cells; host or cells: Haloarcula marismortui (ribosomes purified from the organism)
Experiment: X-ray diffraction of large ribosomal subunit crystals soaked with cycloheximide
Assay type: binding
Settings: crystals soaked with about 30 mM cycloheximide, 1% DMSO, 4° C., 24 hours; difference Fourier maps at 3.0 A resolution
Procedure: The present invention is based, in part, upon the three-dimensional structure of cycloheximide when associated with the large ribosomal subunit. Crystals of the H. marismortui large ribosomal subunit were soaked with cycloheximide at a concentration of about 30 mM, which is equivalent to about […], and the structure of the large ribosome subunit complexed with cycloheximide was resolved via X-ray diffraction studies.
Briefly, a small amount of a concentrated cycloheximide solution was added to a large subunit crystal suspended in stabilization solution and incubated for several hours. Following freezing and the other procedures normally used to prepare such crystals for experimental use, X-ray diffraction data were collected from the cycloheximide containing crystals. […]
The atomic co-ordinates of the large ribosomal subunit associated with cycloheximide are recorded on compact disk, Disk No. 1, under file name cycloheximide.pdb. […]
Electron density corresponding to the antibiotic was first seen in Fo (antibiotic)-Fc (native) difference Fourier maps at 3.0 A resolution. […] The atomic co-ordinates defining the structure of cycloheximide when bound to the large ribosomal subunit are recorded on compact disk, Disk No. 1 under file name cycloheximide.pdb.

Compound: C[C@@H]1C[C@@H]([C@H](O)CC2CC(=O)NC(=O)C2)C(=O)[C@@H](C)C1 (relative stereo) [cycloheximide, [1S-[1α(S*),3α,5β]]-4-[2-(3,5-dimethyl-2-oxocyclohexyl)-2-hydroxyethyl]-2,6-piperidinedione]
- binding of cycloheximide in the large ribosomal subunit (specific vs. non-specific sites): bound to a single location in the large ribosomal subunit
